Laboratory results published in patent publication US4689346A, “Therapeutic 1-(acylamino)-naphthalene-4-sulphonic acid derivatives” (Laboratorio Fides, S.A., priority 1982, dated 1987).
Like-named read-outs stand apart in the source and are kept apart here.

Experiments:
capillary resistance = assay: Capillary resistance, modified technique based on that of Lavollay (time to first central petechiae under vacuum, scorbutic diet); format: in vivo; conditions: 0.175 g/kg, oral, guinea-pigs, four weeks
Protocol: The effect on the capillary resistance is determined by means of a modified technique based on that of Lavollay. An increasingly powerful vacuum is applied to the skin, and the time that elapses before the first central petechiae appear is taken as a measure of the capillary resistance. Three batches of guinea-pigs are used for each product tested, one batch being a normal batch and the two other batches being subjected to a scorbutic diet, one of the latter batches having received the product under investigation from the start of the trial. An initial basal reading and other weekly readings are taken for four weeks. Ethamsylate is used as a standard.

[1] = system: mean bleeding (clotting) time measured in a rabbit ear; assay: Hemostatic activity: mean bleeding (clotting) time in a rabbit ear, technique of Roskam and Pauwen; format: in vivo; conditions: i.v.
Protocol: The hemostatic activity is determined by means of a quantitative study of the mean bleeding (clotting) time measured in a rabbit ear by the technique described by Roskam and Pauwen.
Ethamsylate was used as a standard, and the results obtained were as follows: […]

fibrin plates = assay: Antifibrinolytic activity in vitro by means of fibrin plates, modified and standardized method of Astrup and Mullertz; format: biochemical; conditions: AMCHA as standard (= 1)
Protocol: The antifibrinolytic activity is evaluated "in vitro" by means of fibrin plates according to the modified and standardized method of Astrup and Mullertz.
The antifibrinolytic activity of the test solution is calculated by interpolating the lysis response in a dose/response curve obtained with reference solutions (graduated dilutions of a standard enzyme). AMCHA was used as a standard antifibrinolytic compound.

[2] = system: vascular permeability produced by histamine; assay: Capillary permeability, Lefebre's method (vascular permeability produced by histamine in rats); format: in vivo; conditions: 0.100 g/kg, subcutaneous
Protocol: The effect on the capillary permeability is determined by means of Lefebre's method, which is based on measuring, at the time of appearance of a coloration, the vascular permeability produced by histamine in rats that have been injected with the product under investigation. Ethamsylate is used as a standard, and the results obtained are as follows: […]

[3] = Acute toxicity, LD50 in mice; format: in vivo; conditions: mouse, in vivo
Protocol: (§1) The LD50 in mice is determined for the endovenous, intraperitoneal and oral routes.

mice = assay: Acute toxicity, LD50 in mice; format: in vivo; conditions: for Acute toxicity, LD50, I.v. route: i.v. (endovenous)
Protocol: as §1

Row | SMILES | Capillary resistance, % Effect (capillary resistance) | Hemostatic activity, % Effect ([1]; 10 mg/kg) | Hemostatic activity, % Effect ([1]; 100 mg/kg) | Antifibrinolytic activity, Weight capacity (fibrin plates) | Capillary permeability, % Effect [2] | Antifibrinolytic activity, Relative capacity (fibrin plates) | LD50 ([3]; iv, i.v. (endovenous), read-out: Acute toxicity, LD50, I.v. route) | Acute toxicity, LD50, I.v. route (mice) | LD50 ([3]; ip, read-out: Acute toxicity, LD50, I.p. route) | LD50 ([3]; po, read-out: Acute toxicity, LD50, Oral route) | Acute toxicity, LD50, I.p. route (mice) | Acute toxicity, LD50, Oral route (mice) | Hemostatic activity, % Effect ([1]; 25 mg/kg)
1 | NC[C@H]1CC[C@H](C(=O)O)CC1 [AMCHA, trans-4-(aminomethyl)-cyclohexanecarboxylic acid, reference compound] | 20.08% | 22.5% | 26.5% | 1 | -2% |  |  |  |  |  |  |  | 
2 | O=S(=O)(O)c1cc(O)ccc1O [Ethamsylate, reference compound] | 14.18% | 22.11% |  | 0.28 | 26.33% | 0.47 | 800 mg/kg |  |  |  |  |  | 
3 | CC(=O)Oc1cc(S(=O)(=O)O)c2ccccc2c1N(C(C)=O)C(C)=O [Example 1, potassium N,N,O-triacetyl-1-amino-2-naphthol-4-sulphonate] | 23.6% | 18.2% | 23% | 0.91 | 19% | 2.06 |  | 0.653 g/kg | 3560 mg/kg | > 7000 mg/kg |  |  | 
4 | CC(=O)Oc1cc(S(=O)(=O)O)c2ccccc2c1N(C(C)=O)C(C)=O [Example 2, morpholine N,N,O-triacetyl-1-amino-2-naphthol-4-sulphonate] | 23.95% | 24.7% | 13% | 0.59 | 29% | 1.67 |  | 1.53 g/kg |  |  | 4.04 g/kg | > 7 g/kg | 
5 | CC(=O)Oc1cc(S(=O)(=O)O)c2ccccc2c1N(C(C)=O)C(C)=O [Example 4, sodium N,N,O-triacetyl-1-amino-2-naphthol-4-sulphonate] | 17.9% | 29.7% | 29.8% | 1.21 |  | 2.61 |  | 3.51 g/kg |  |  | 5.26 g/kg | > 7 g/kg | 
6 | CC(=O)Nc1c(OC(C)=O)cc(S(=O)(=O)O)c2ccccc12 [Example 5, sodium N,O-diacetyl-1-amino-2-naphthol-4-sulphonate] | 26% |  |  | 0.55 |  | 1.19 |  |  |  |  |  |  | 10.6%
7 | CC(=O)Oc1cc(S(=O)(=O)O)c2ccccc2c1N(C(C)=O)C(C)=O [Example 11, AMCHA N,N,O-triacetyl-1-amino-2-naphthol-4-sulphonate] | 22.6% | 20% | 32% | 1.19 | 14% | 3.36 |  |  |  |  |  |  | 
